Test results reported in patent US10597398B2, “Suppression and regeneration promoting effect of low molecular weight compound on cancer and fibrosis” (NATIONAL UNIVERSITY CORPORATION TOTTORI UNIVERSITY, priority 2015, dated 2020).

Columns and labels:
Assay type in all cases: cell-based, human
HuH-7 cells = test: Growth inhibitory effect on cancer cells (WST assay), Example 2.3; conditions: for IC50: HuH-7 cells, WST assay, concentrations 0-50 μM, control 0.1% DMSO; for IC50 compared with IC-2: comparison with IC-2
Method: HuH-7 cells, a human liver cancer cell line, were cultured on 10-cm cell culture dishes (TPP Techno Plastic Products AG, Trasadingen, Switzerland) by using DMEM under conditions at 5% CO2, 37° C., and 100% humidity. When the cells were 70 to 90% confluent, 200 μL of 0.25% Trypsin/1 mM EDTA solution, which had been prepared by diluting the stock solution 10-fold with PBS (−), was added to detach the cells. Then, the cells were centrifuged at 1000 rpm for 3 min at room temperature. The cells recovered were subcultured at a 1:4 split ratio.
First, 70 to 90% confluent HuH-7 cells were harvested and seeded (n=3) at 5×10^3 cells/well of a 96-well plate (TPP). After 24 h, each compound was added to the cells and the mixture was cultured at 37° C. The concentrations of each compound were 0, 10, 20, 30, 40, and 50 μM. For IC-2-506-1, however, the concentrations used were 0, 10, 20, 25, 30, 40, and 50 μM. Each control sample (0 μM) used was 0.1% DMSO, a solvent for each compound.
Next, 0, 24, 48, and 96 h after the compound treatment, 100 μIL of DMEM-diluted 10% Cell Counting Kit-8 (DOJINDO LABORATORIES, Kumamoto) was added. The mixture was incubated at 37° C. for 60 min and its absorbance (at a measurement wavelength of 450 nm/control wavelength of 600 nm) was measured by using a Sunrise Rainbow RC (Tecan Group Ltd., Mannedorf, Switzerland). Absorbance for the cells alone was calculated by subtracting, from the reading obtained, absorbance for 10% Cell Counting Kit-8 alone.
The “*” in figures indicates a significant difference of p<0.05 between 0.1% DMSO and each compound; and the “**” indicates a significant difference of p<0.01 (the same applies to all the figures in Examples).

Wnt/β-catenin signaling [1] = test: Inhibitory effect on Wnt/β-catenin signaling in mesenchymal stem cells (E7-TCF4 luciferase); conditions: for inhibitory effect on Wnt/β-catenin signaling in mesenchymal stem cells: E7-TCF4 cells, day 8 after compound addition, compared with control 0.1% DMSO; for inhibitory effect on Wnt/β-catenin signaling pathway in mesenchymal stem cells compared with IC-2: concentration equal to or lower than that of IC-2
Method: A pTCF4-CMVpro-GL4.20 plasmid vector, having 3 copies of TCF4 motifs (CCT TTG ATC) upstream of aCMV promoter in a multiple cloning site of pGL4.20 (Promega Corp., Fitchburg, Wis.), was linearized and stably transfected into UE7T-13 cells to prepare E7-TCF4 cells. Also, a pCMVpro-GL4.20 plasmid vector, having a CMV promoter in a multiple cloning site of pGL4.20, was linearized and stably transfected into UE7T-13 cells. The resulting stable cells (E7-CMV cells) were cultured, like UE7T-13 cells, in 10% FBS/DMEM containing 0.25 μg/mL puromycin.
UE7T-13 cells were used to measure Wnt/β-catenin signaling activity. The concentrations of the respective compounds were as described in FIG. 42. Each control sample used was 0.1% DMSO, a solvent for each compound.
First, 70 to 90% confluent E7-TCF4 cells and E7-CMV cells were harvested and seeded (n=3) at 1.6758×10^4 cells/well of a 24-well plate (9.0×10^3 cells/cm^2). One day after that, each compound was added to the cells and the mixture was cultured at 37° C. Day 4 after the compound addition, the culture medium was changed.
At day 1, 4, or 8 after the compound treatment, the culture medium was discarded, and 100 μL of room temperature 5×Passive Lysis Buffer (PLB), which had been diluted 5-fold with MilliQ water, was added to each well. Next, the plate was shaken at room temperature for 15 min and was then frozen at −30° C. overnight. A Luciferase Assay Substrate was diluted with 10 mL of room temperature Luciferase Assay Buffer II to prepare Luciferase Assay Reagent II (LARII). The frozen PLB lysate samples were thawed and permeabilized for 15 min. Then, 10 μL aliquots were added to wells of a 96-well white plate. While 50 μL aliquots of LARII were each added to each well, luminescence was quantified by using a 1420 multi-label counter ARVO MX to determine firefly luciferase activity.

Wnt/β-catenin signaling [2] = test: Inhibitory effect on Wnt/β-catenin signaling in liver stellate cells (LX-2, TCF4 luciferase); conditions: concentration equal to or lower than that of IC-2
Method: While each compound was added at concentrations where the cell growth of fibrosis-causing liver stellate LX-2 cells was reduced to about 50 to 80%, Wnt/β-catenin signaling activity was measured. […] The concentrations of the respective compounds were as described in FIG. 41. Each control sample used was 0.1% DMSO, a solvent for each compound.
LX-2 cells, which were cultured and maintained by using 10% FBS/DMEM, were harvested and seeded (n=3) in 1% FBS/DMEM at 4.0×10^4 cells per well of a 24-well plate. Next, 25 μL of Opti-MEM (Gibco, Life Technologies Corp., Carlsbad, Calif.) containing 50 ng of pTCF4-CMVpro-GL4.20, having 3 copies of TCF motifs (CCT TTG ATC) upstream of a CMV promoter in a multiple cloning site of pGL4.20 (Promega), and 5 ng of pRL-CMV Vector (Promega) and 25 μL of Opti-MEM containing 0.4 μL of Lipofectamine 2000 (Invitrogen, Life Technologies Corp., Carlsbad, Calif.) were mixed and incubated at room temperature for 20 min. At 20 h after the cell seeding, the mixture was added to each well, so that both reporter plasmids were transiently transfected into the cells. After additional 4 h, 2.5 ng/mL of TGF-β and each compound were added to the cells and the mixture was cultured at 37° C.
At 24 and 48 h after the compound treatment, the culture medium was discarded, and 100 μL of room temperature 5×Passive Lysis Buffer (PLB), which had been diluted 5-fold with MilliQ water, was added to each well. Next, the plate was shaken at room temperature for 15 min and was then frozen at −30° C. overnight. A Luciferase Assay Substrate was diluted with 10 mL of room temperature Luciferase Assay Buffer II to prepare Luciferase Assay Reagent II (LARII). Then, 1 μL of Stop&Glo Substrate was diluted with 49 μL of room temperature Stop&Glo Buffer to prepare Stop&Glo (Promega) in a quantity enough for samples.
The frozen PLB lysate samples were thawed and permeabilized for 15 min. After that, 50 μl aliquots of LARII were dispensed into 3.5 mL test tubes (Sarstedt, AG & Co., Numbrecht, Germany) and 10 μL of each frozen PLB lysate sample was added and mixed well. Subsequently, luminescence was quantified by using a MiniLumat LB 9506 (Berthold Technologies GmbH & Co, Bad Wildbad, Germany) to measure firefly luciferase activity. After the measurement, 50 μL of Stop&Glo was added and mixed well and luminescence was then quantified by using the MiniLumat LB 9506 to determine Renilla luciferase activity. The measurement results were obtained by dividing the firefly luciferase activity by the Renilla luciferase activity.

Wnt/β-catenin signaling [3] = test: Inhibitory effect on Wnt/β-catenin signaling in liver cancer cells (HuH7-TCF4 luciferase); conditions: concentration equal to or lower than that of IC-2
Method: A pTCF4-CMVpro-GL4.20 plasmid vector, which had been constructed by inserting 3 copies of TCF4 motifs (CCT TTG ATC) upstream of a CMV promoter into a multiple cloning site of pGL4.20 (Promega Corp., Fitchburg, Wis.), was linearized and stably transfected into the HuH-7 cells. The resulting stable cells (HuH7-TCF4 cells) and HuH-7 cells were likewise cultured.
While each compound was added at concentrations where the growth of HuH-7 cells was reduced to about 50% or less, Wnt/β-catenin signaling activity was measured. The concentrations of the respective compounds were as described in FIG. 40. Control samples used were 0.1% DMSO, a solvent for each compound, and 0.5 μM 5-FU.
First, 70 to 90% confluent HuH7-TCF4 cells were harvested and seeded (n=3) at 5.0×10^4 cells/well of a 24-well plate (TPP). After 24 h, each compound was added to the cells and the mixture was cultured at 37° C.
At 48 h after the compound treatment, the culture medium was discarded, and 100 μL of room temperature 5×Passive Lysis Buffer (PLB) (Promega Corp., Fitchburg, Wis.), which had been diluted 5-fold with MilliQ water, was added to each well. Next, the plate was shaken at room temperature for 15 min and was then frozen at −30° C. overnight. A Luciferase Assay Substrate was diluted with 10 mL of room temperature Luciferase Assay Buffer II to prepare Luciferase Assay Reagent II (LARII) (Promega). The frozen PLB lysate samples were thawed and permeabilized for 15 min. Then, 10 μL aliquots were added to wells of a 96-well white plate (Corning Inc., Corning, N.Y.). While 50 μL aliquots of LARII were each added to each well, luminescence was quantified by using a 1420 multi-label counter ARVO MX (PerkinElmer Singapore Pte Ltd., Singapore) to determine firefly luciferase activity. Note that a significant difference was evaluated by using (two-tailed) Student's t-test. The “*” in figures indicates a significant difference of p<0.05 between 0.1% DMSO and each compound; and the “**” indicates a significant difference of p<0.01 (the same applies to all the figures in Examples).

LX-2 cells = test: Anti-fibrosis effect, summary statements on Example 3 (marker not specified); conditions: for anti-fibrosis effect compared with IC-2, equal or higher concentration: concentration equal to or higher than that of IC-2
Source text: α-Smooth muscle actin (α-SMA), a fibrosis marker, was used as an indicator, and RNA was collected from LX-2 cells treated with each low-molecular-weight compound. Next, an inhibitory effect on fibrosis was examined by real-time RT-PCR.
In addition, instead of α-SMA, another fibrosis marker collagen, type I, alpha 1 (COL1A1) was used as an indicator, and substantially the same protocol was repeated. The concentrations of each compound used were as described in FIG. 34. Each control sample used was 0.1% DMSO, a solvent for each compound. Here, COL1A1 primers used were 5′-CCT CCA GGG CTC CAA CGA G-3′ and 5′-TCAATCACTGTCTTGCCCCA-3′. The annealing was performed at 58° C. for 5 sec. The measurement results were obtained by dividing the calculated value for the COL1A1 gene by the calculated value for the GAPDH gene.

Structure (SMILES): O=C1C(Cc2ccccc2)N2C(=O)CCN(c3ccccc3[N+](=O)[O-])C2CN1Cc1cccc2ccccc12 (stereo not drawn) [Compound 7c-NT]
- IC50 (HuH-7 cells): 36.1 µM
- inhibitory effect on Wnt/β-catenin signaling in mesenchymal stem cells (Wnt/β-catenin signaling [1]): all the compounds except for IC-2-Ar-OMe, 9b, and 7c-NT exhibited a significant inhibitory effect
- inhibitory effect on Wnt/β-catenin signaling pathway in liver stellate cells compared with IC-2 (Wnt/β-catenin signaling [2]): more potent inhibitory effect

Structure (SMILES): O=C1C(Cc2ccccc2)N2C(=O)CCN(C(=O)NCc3ccccc3)C2CN1Cc1cccc(Cl)c1Cl (stereo not drawn) [IC-2-506-1]
- inhibitory effect on Wnt/β-catenin signaling pathway in liver cancer cells compared with IC-2 (Wnt/β-catenin signaling [3]): more potent inhibitory effect
- IC50 (HuH-7 cells): 14.1 µM
- anti-tumor effect compared with IC-2 (HuH-7 cells; at a concentration lower than that of IC-2): more potent anti-tumor effect
- IC50 compared with IC-2 (HuH-7 cells): lower IC50 than IC-2
- anti-fibrosis effect compared with IC-2, equal or higher concentration (LX-2 cells): more potent anti-fibrosis effect
- inhibitory effect on Wnt/β-catenin signaling pathway in liver stellate cells compared with IC-2 (Wnt/β-catenin signaling [2]): more potent inhibitory effect

Structure (SMILES): O=C1C(Cc2ccccc2)N2C(=O)CCN(C(=O)NCc3ccccc3)C2CN1Cc1ccc(Cl)c(Cl)c1 (stereo not drawn) [IC-2-506-3]
- IC50 (HuH-7 cells): 18.3 µM
- IC50 compared with IC-2 (HuH-7 cells): lower IC50 than IC-2
- anti-fibrosis effect compared with IC-2, lower concentration (LX-2 cells; concentration even lower than that of IC-2): more potent anti-fibrosis effect
- inhibitory effect on Wnt/β-catenin signaling pathway in liver stellate cells compared with IC-2 (Wnt/β-catenin signaling [2]): more potent inhibitory effect

Structure (SMILES): COc1ccc(CN2CC3N(C(=O)NCc4ccccc4)CCC(=O)N3C(Cc3ccccc3)C2=O)cc1 (stereo not drawn) [IC-2-Ar-OMe]
- inhibitory effect on Wnt/β-catenin signaling in mesenchymal stem cells (Wnt/β-catenin signaling [1]): all the compounds except for IC-2-Ar-OMe, 9b, and 7c-NT exhibited a significant inhibitory effect

Structure (SMILES): O=C1C(Cc2ccccc2)N2C(=O)CCN(C(=O)NCc3ccccc3)C2CN1Cc1ccc(Cl)cc1 (stereo not drawn) [IC-2-Ar—Cl]
- inhibitory effect on Wnt/β-catenin signaling pathway in liver cancer cells compared with IC-2 (Wnt/β-catenin signaling [3]): more potent inhibitory effect
- IC50 (HuH-7 cells): 45.1 µM
- anti-fibrosis effect compared with IC-2, equal or higher concentration (LX-2 cells): more potent anti-fibrosis effect
- inhibitory effect on Wnt/β-catenin signaling pathway in mesenchymal stem cells compared with IC-2 (Wnt/β-catenin signaling [1]): more potent inhibitory effect

Structure (SMILES): O=C1C(Cc2ccccc2)N2C(=O)CCN(C(=O)NCc3ccccc3)C2CN1Cc1ccc([N+](=O)[O-])cc1 (stereo not drawn) [IC-2-Ar—NO2]
- inhibitory effect on Wnt/β-catenin signaling pathway in mesenchymal stem cells compared with IC-2 (Wnt/β-catenin signaling [1]): more potent inhibitory effect

Structure (SMILES): O=C1C(Cc2ccccc2)N2C(=O)CCN(C(=O)NCc3ccc(O)cc3)C2CN1Cc1cccc2ccccc12 (stereo not drawn) [IC-2-OH]
- inhibitory effect on Wnt/β-catenin signaling pathway in liver cancer cells compared with IC-2 (Wnt/β-catenin signaling [3]): more potent inhibitory effect
- IC50 (HuH-7 cells): 33.5 µM
- anti-fibrosis effect compared with IC-2, equal or higher concentration (LX-2 cells): more potent anti-fibrosis effect

Structure (SMILES): COCOc1ccc(CNC(=O)N2CCC(=O)N3C(Cc4ccccc4)C(=O)N(Cc4cccc5ccccc45)CC23)cc1 (stereo not drawn) [IC-2-OMOM]
- inhibitory effect on Wnt/β-catenin signaling pathway in liver cancer cells compared with IC-2 (Wnt/β-catenin signaling [3]): more potent inhibitory effect
- IC50 (HuH-7 cells): 20.3 µM
- IC50 compared with IC-2 (HuH-7 cells): lower IC50 than IC-2

Structure (SMILES): COc1ccc(CNC(=O)N2CCC(=O)N3C(Cc4ccccc4)C(=O)N(Cc4cccc5ccccc45)CC23)cc1 (stereo not drawn) [IC-2-OMe]
- inhibitory effect on Wnt/β-catenin signaling pathway in liver cancer cells compared with IC-2 (Wnt/β-catenin signaling [3]): more potent inhibitory effect
- IC50 (HuH-7 cells): 34.9 µM
